# Source: patent publication US9670261B2 (Sanofi, priority 2012, dated 2017)
# pEC50: −log10 of the molar value. *1 amine or outer side, *2 acyl side, *3 side chain or, on linkers, in order; H or OH if unused. Where a SMILES comes first, the peptide text is derived from it. Side-chain parts run from the residue outwards. [ ]: non-standard residue; d: D form. The star is where a group is joined. γGlu = O=C(O)[C@H](CCC(=O)[*:2])N[*:1]; Palmitoyl = CCCCCCCCCCCCCCCC(=O)*; Aib = CC(C)(N)C(=O)O
# What was measured:
# [1] = Chemical stability in solution, 7 days at 25° C. (% remaining peptide); details: % remaining peptide after 7 days at 25° C.
# Experimental: After that time course, the sample was centrifuged for 20 min at 4000 rpm and the supernatant was analysed with HPLC-UV. For determination of the amount of the remaining peptide, the peak areas of the target compound at t0 and t7 were compared, resulting in “% remaining peptide”, following the equation % remaining peptide=[(peak area peptide t7)×100]/peak area peptide t0.
# The chemical stability is expressed as “% remaining peptide”.
# [2] = tested on: female diet-induced obese (DIO) C57BL/6NCrl mice; test: Body weight in DIO mice, 14 weeks of prefeeding with high-fat diet (method 2); assay type: in vivo
# Experimental: (§1) Female C57BL/6NCrl mice were housed in groups in a specific pathogen-free barrier facility on a 12 h light/dark cycle with free access to water and high-fat diet. After 14 weeks on high-fat diet, mice were stratified to treatment groups (n=8), so that each group had similar mean body weight.
# An aged-matched group with ad libitum access to standard chow and water was included as standard control group.
# (§2) Before the experiment, mice were subcutaneously (s.c.) injected with vehicle solution and weighed for 3 days to acclimate them to the procedures.
# Body weight was recorded daily.
# (§3) Statistical analyses were performed with Everstat 6.0 by repeated measures two-way ANOVA and Dunnett's post-hoc analyses (glucose profile) and 1-way-ANOVA, followed by Dunnett's post-hoc test (body weight, body fat). Differences versus vehicle-treated DIO control mice were considered statistically significant at the p<0.05 level.
# Female obese C57BL/6NCrl mice were treated for 3 weeks once daily subcutaneously in the late afternoon, prior the end of the light phase (12 h lights on) with 10 μg/kg SEQ ID NO: 9 and SEQ ID NO: 21 or vehicle. Body weight was recorded daily.
# [3] = Pharmacokinetic testing in mice, s.c.; details: mouse, plasma, sc, 1 mg/kg
# Experimental: Mice were dosed 1 mg/kg subcutaneously (s.c.). The mice were sacrified and blood samples were collected after 0.25, 0.5, 1, 2, 4, 8, 16 and 24 hours post application. Plasma samples were analyzed after protein precipitation via liquid chromatography mass spectrometry (LC/MS). PK parameters and half-life were calculated using WinonLin Version 5.2.1 (non-compartment model).
# [4] = tested on: female NMRI-mice; test: Gastric emptying and intestinal passage in mice; assay type: in vivo; details: versus vehicle control
# Experimental: Female NMRI-mice of a body weight between 20 and 30 g were used. Mice were adapted to housing conditions for at least one week. Mice were overnight fasted, while water remained available all the time. On the study day, mice were weighed, single-caged and allowed access to 500 mg of feed for 30 min, while water was removed. At the end of the […], remaining feed was removed and weighed. Then, the test compound/reference compound or its vehicle in the control group was administered subcutaneously. 60 min later, to allow the compound to reach relevant plasma exposure, a coloured, non-caloric bolus was instilled via gavage into the stomach. After another 30 min, the animals were sacrificed and the stomach and the small intestine prepared. The filled stomach was weighed, emptied, carefully cleaned and dried and reweighed. The stomach content, calculated as weight of filled subtracted by the weight of emptied stomach, indicated the degree of gastric emptying. The small intestine was straightened without force and measured in length. Then the distance from the gastric beginning of the gut to the tip of the farthest traveled intestinal content bolus was measured. The intestinal passage was given as ratio in percent of the latter distance and the total length of the small intestine. […] Statistical analyses were performed with Everstat 6.0 by 1-way-ANOVA, followed by Dunnett's as post-hoc test. Dunnett's Test was applied to compare versus vehicle control. Differences were considered statistically significant at the p<0.05 level.
# [5] = Pharmacokinetic testing in Göttinger minipigs, s.c.; assay type: in vivo; details: female, minipig, plasma, sc, Mini pigs, 0.1 mg/kg s.c.
# Experimental: Female Göttinger minipigs were dosed 0.1 mg/kg subcutaneously (s.c.). Blood samples were collected after 0.25, 0.5, 1, 2, 4, 8, 24, 32, 48, 56 and 72 hours post application. Plasma samples were analyzed after protein precipitation via liquid chromatography mass spectrometry (LC/MS). PK parameters and half-life were calculated using WinonLin Version 5.2.1 (non-compartment model).
# [6] = target: T1, human GLP-1 receptor (Homo sapiens, UniProt P43220); test: cAMP response (HTRF) of HEK-293 cells stably expressing human GLP-1 receptor; assay type: cell-based; details: Table 7; cAMP formation; read-out: EC50 hGLP-1 R
# T1 construct: expressed in transfected cells
# Procedure, shortened: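 HEK-293 cells stably expressing the receptor were resuspended at 400000 cells/ml in HBSS/20 mM HEPES/0.1% BSA buffer with 2 mM IBMX. Cells were stimulated with compound for 30 min at room temperature. Intracellular cAMP was measured by HTRF.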
# [7] = tested on: female diet-induced obese (DIO) C57BL/6NCrl mice; test: Blood glucose and body weight in DIO mice, 18 weeks on high-fat diet (method 1); assay type: in vivo; details: for decrease of body weight, relative change from baseline: 4 weeks; for Bodyfat change / Overall weight change: 4-week treatment, mean ± SEM
# Experimental: as §1, with “18” for “14”, “weight. An aged-matched group with ad libitum access to standard chow was included as standard control group.” for “weight.”
# as §2
# The volume of administration was 5 mL/kg. The animals had access to water and their corresponding diet during the experiment, food consumption was determined at all time points of blood sampling. Blood glucose levels were measured at t=0.5 h, t=1 h, t=2 h, t=4 h, t=6 h, t=8 h, and t=24 h (method: d-glucose hexokinase, hemolysate, AU640 Beckman Coulter). Blood sampling was performed by tail incision without anaesthesia.
# Body weight was recorded daily. On days 6 and 28, total fat mass was measured by nuclear magnetic resonance (NMR) using a Bruker minispec (Ettlingen, Germany).
# as §3
# Diet-induced obese female C57BL/6NCrl mice were administered daily in the afternoon, at the end of the light phase (12 h lights on) with 10, 30 and 100 μg/kg of SEQ ID NO: 9 or phosphate buffered solution (vehicle control on standard or high-fat diet) subcutaneously. On day 6 of treatment and at predefined time points, more blood samples were taken to measure blood glucose and generate the blood glucose profile over 24 h.
# Female obese C57BL/6NCrl mice were treated for 4 weeks once daily subcutaneously in the afternoon, at the end of the light phase (12 h lights on) with 10, 30 or 100 μg/kg SEQ ID NO: 9 or vehicle. Body weight was recorded daily, and body fat content was determined before the start of treatment and after 4 weeks of treatment.
# [8] = Solubility testing in buffer (HPLC-UV); details: buffer
# T1 sequence (P43220 24-463): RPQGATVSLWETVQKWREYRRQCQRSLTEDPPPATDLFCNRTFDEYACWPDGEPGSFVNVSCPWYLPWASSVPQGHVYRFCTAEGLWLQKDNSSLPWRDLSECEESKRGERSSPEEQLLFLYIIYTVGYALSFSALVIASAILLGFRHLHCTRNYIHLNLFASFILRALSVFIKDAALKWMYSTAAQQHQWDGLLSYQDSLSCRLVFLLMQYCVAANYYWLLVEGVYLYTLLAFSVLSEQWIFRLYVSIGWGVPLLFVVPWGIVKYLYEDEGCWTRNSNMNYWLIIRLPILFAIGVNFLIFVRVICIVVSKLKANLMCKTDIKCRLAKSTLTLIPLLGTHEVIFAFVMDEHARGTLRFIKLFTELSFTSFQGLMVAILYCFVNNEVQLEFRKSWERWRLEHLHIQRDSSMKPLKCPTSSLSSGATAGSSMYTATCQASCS
structure (smiles),measurement,setting,value
"CCCCCCCCCCCCCCCC(=O)N[C@@H](CCC(=O)NCCCC[C@H](NC(=O)[C@H](CCC(N)=O)NC(=O)[C@@H](NC(=O)[C@H](CO)NC(=O)[C@H](CC(C)C)NC(=O)[C@H](CC(=O)O)NC(=O)[C@H](CO)NC(=O)[C@@H](NC(=O)[C@H](Cc1ccccc1)NC(=O)[C@@H](NC(=O)CNC(=O)[C@H](CCC(=O)O)NC(=O)C(C)(C)NC(=O)[C@@H](N)Cc1ccc(O)cc1)[C@@H](C)O)[C@@H](C)O)[C@@H](C)CC)C(=O)N[C@@H](CCC(=O)O)C(=O)N[C@@H](CCCCN)C(=O)N[C@@H](CCCNC(=N)N)C(=O)N[C@@H](C)C(=O)N[C@@H](C)C(=O)NC(C)(C)C(=O)N[C@@H](CCC(=O)O)C(=O)N[C@@H](Cc1ccccc1)C(=O)N[C@H](C(=O)N[C@@H](CCC(=O)O)C(=O)N[C@@H](Cc1c[nH]c2ccccc12)C(=O)N[C@@H](CC(C)C)C(=O)N[C@@H](CCCCN)C(=O)N[C@@H](CC(N)=O)C(=O)N[C@H](C(=O)NCC(=O)N1CCC[C@H]1C(=O)N[C@@H](CO)C(=O)N[C@@H](CO)C(=O)NCC(=O)N[C@@H](C)C(=O)N1CCC[C@H]1C(=O)N1CCC[C@H]1C(=O)N1CCC[C@H]1C(=O)N[C@@H](CO)C(N)=O)[C@@H](C)O)[C@@H](C)CC)C(=O)O [SEQ ID NO: 9, Y-Aib-E-G-T-F-T-S-D-L-S-I-Q-K(γE-x53)-E-K-R-A-A-Aib-E-F-I-E-W-L-K-N-T-G-P-S-S-G-A-P-P-P-S-NH2] (H-Y[Aib]EGTFTSDLSIQK([γGlu-Palmitoyl])EKRAA[Aib]EFIEWLKNTGPSSGAPPPS-NH2)",Stability (pH 4.5),[1]; pH 4.5,92.5%
same,Stability (pH 7.4),[1]; pH 7.4,97.7%
same,"decrease of body weight, relative change from baseline","[2]; 10 μg/kg s.c. once daily, 3 weeks",up to 15.1%
same,Overall weight change,"[2]; 10 μg/kg, 3-week treatment, mean ± SEM",-6.2 ± 0.4 g
same,Cmax,[3],5470 ng/mL
same,half-life,[3],4.1 h
same,increase of remaining gastric contents,[4]; 1 μg/kg s.c.,32%
same,reduction of intestinal passage,[4]; 1 μg/kg s.c.,49%
same,increase of remaining gastric contents,[4]; 3 μg/kg s.c.,79%
same,reduction of intestinal passage,[4]; 3 μg/kg s.c.,62%
same,increase of remaining gastric contents,[4]; 10 μg/kg s.c.,111%
same,reduction of intestinal passage,[4]; 10 μg/kg s.c.,64%
same,Cmax,[5],278 ng/mL
same,half-life,[5],12.2 h
same,pEC50,[6],11.44
same,"decrease of body weight, relative change from baseline",[7]; 10 μg/kg s.c. once daily,13.3-16.4%
same,Bodyfat change,[7]; 10 μg/kg,-4.2 ± 0.4 g
same,Overall weight change,[7]; 10 μg/kg,-5.0 ± 0.5 g
same,"decrease of body weight, relative change from baseline",[7]; 30 μg/kg s.c. once daily,17.6-20.9%
same,Bodyfat change,[7]; 30 μg/kg,-6.1 ± 0.4 g
same,Overall weight change,[7]; 30 μg/kg,-6.9 ± 0.5 g
same,"decrease of body weight, relative change from baseline",[7]; 100 μg/kg s.c. once daily,21.7-22.7%
same,Bodyfat change,[7]; 100 μg/kg,-6.4 ± 0.5 g
same,Overall weight change,[7]; 100 μg/kg,-7.3 ± 0.6 g
same,basal blood glucose levels compared to DIO control mice,"[7]; day 6 of treatment, 10, 30 and 100 μg/kg s.c. daily",dose-dependently decreased
same,solubility at 2 h,[8]; pH 4.5,> 1000 µg/mL
same,solubility at 2 h,[8]; pH 7.4,> 1000 µg/mL
